The data set is described as follows: Aqueous solubility of steviol glycosides and blends. The class given is physicochemical. As to the method:
A number of methods are known in the art for determining aqueous solubility. In one such method, solubility can be determined by a solvent addition method in which a weighed sample is treated with aliquots of aqueous solvent. The mixture is generally vortexed and/or sonicated between additions to facilitate dissolution. Complete dissolution of the test material is determined by visual inspection. Solubility is calculated based on the total solvent used to provide complete dissolution.
Another method for determining solubility is by measuring the turbidity (NTU units) of a composition using a turbidimeter, such as HACH 2100 AN. In a typical experiment, a portion of the composition to be measured is added to a portion of aqueous solvent (or visa versa) at room temperature. Turbidity is measured after waiting from 2-10 minutes to observe visual dissolution of the portion. Then, another portion of the composition is added, dissolution is observed and turbidity is measured again. This process is repeated until turbidity reaches exceeds beyond acceptable values, typically around 4 NTU-10 NTU. While turbidity measurements can be very useful in determining solubility, it will not detect solids collected on the bottom of a container. Accordingly, it is important to shake the container prior to determining turbidity and confirm a given turbidity measurement with visual inspection of dissolution. […]

Experimental findings from patent US20210127726A1, “METHODS FOR IMPROVING THE SOLUBILITY OF STEVIOL GLYCOSIDE MIXTURES, AND USES” (The Coca-Cola Company, priority 2018, published 2021) are described below.

The compound `C=C1C[C@@]23CC[C@H]4[C@@](C)(CCC[C@@]4(C)C(=O)O[C@@H]4O[C@H](CO)[C@@H](O)[C@H](O)[C@H]4O[C@@H]4O[C@H](CO)[C@@H](O)[C@H](O)[C@H]4O)[C@@H]2CC[C@]1(O[C@@H]1O[C@H](CO)[C@@H](O)[C@H](O[C@@H]2O[C@H](CO)[C@@H](O)[C@H](O)[C@H]2O)[C@H]1O[C@@H]1O[C@H](CO)[C@@H](O)[C@H](O)[C@H]1O)C3` [Pure reb D, rebaudioside D] yielded an aqueous solubility of 0.05 wt %.
Compound `C=C1C[C@@]23CC[C@H]4[C@@](C)(CCC[C@@]4(C)C(=O)O[C@@H]4O[C@H](CO)[C@@H](O)[C@H](O[C@@H]5O[C@H](CO)[C@@H](O)[C@H](O)[C@H]5O)[C@H]4O[C@@H]4O[C@H](CO)[C@@H](O)[C@H](O)[C@H]4O)[C@@H]2CC[C@]1(O[C@@H]1O[C@H](CO)[C@@H](O)[C@H](O[C@@H]2O[C@H](CO)[C@@H](O)[C@H](O)[C@H]2O)[C@H]1O[C@@H]1O[C@H](CO)[C@@H](O)[C@H](O)[C@H]1O)C3` [Pure reb M, 13-[(2-O-β-D-glucopyranosyl-3-O-β-D-glucopyranosyl-β-D-glucopyranosyl)oxy] ent kaur-16-en-19-oic acid-[(2-O-β-D-glucopyranosyl-3-O-β-D-glucopyranosyl-β-D-glucopyranosyl) ester]] showed an aqueous solubility of 0.1 wt %.
